Reference: PubChem BioAssay (NCI)
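Dose response: 5 concentrations. Exposure: 48 h. Format: 96-well plates. Endpoint: linear interpolation; highest concentration if not reached. At the TGI there is no net growth.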

Assays:
Test in all cases: growth of human tumour cells (NCI), 48 h
BT-549 breast = test system: BT-549 breast
MALME-3M melanoma = test system: MALME-3M melanoma
CAKI-1 renal = test system: CAKI-1 renal
NCI-H226 lung = test system: NCI-H226 lung
M14 melanoma = test system: M14 melanoma
U251 CNS = test system: U251 CNS
PC-3 prostate = test system: PC-3 prostate
786-0 renal = test system: 786-0 renal
HCT-116 colon = test system: HCT-116 colon
HOP-62 NSCLC = test system: HOP-62 NSCLC
SF-268 CNS = test system: SF-268 CNS
NCI-H23 lung = test system: NCI-H23 lung
K-562 leukemia = test system: K-562 leukemia
OVCAR-5 ovarian = test system: OVCAR-5 ovarian
HT29 colon = test system: HT29 colon
HCT-15 colon = test system: HCT-15 colon
MDA-MB-435 = test system: MDA-MB-435
NCI-H522 lung = test system: NCI-H522 lung
UACC-62 melanoma = test system: UACC-62 melanoma
RPMI-8226 leukemia = test system: RPMI-8226 leukemia

| Structure (SMILES) | TGI (BT-549 breast) [µM] | TGI (MALME-3M melanoma) [µM] | TGI (CAKI-1 renal) [µM] | TGI (NCI-H226 lung) [µM] | TGI (M14 melanoma) [µM] | TGI (U251 CNS) [µM] | TGI (PC-3 prostate) [µM] | TGI (786-0 renal) [µM] | TGI (HCT-116 colon) [µM] | TGI (HOP-62 NSCLC) [µM] | TGI (SF-268 CNS) [µM] | TGI (NCI-H23 lung) [µM] | TGI (K-562 leukemia) [µM] | TGI (OVCAR-5 ovarian) [µM] | TGI (HT29 colon) [µM] | TGI (HCT-15 colon) [µM] | TGI (MDA-MB-435) [µM] | TGI (NCI-H522 lung) [µM] | TGI (UACC-62 melanoma) [µM] | TGI (RPMI-8226 leukemia) [µM] |
| --- | --- | --- | --- | --- | --- | --- | --- | --- | --- | --- | --- | --- | --- | --- | --- | --- | --- | --- | --- | --- |
| c1ccc(C2(c3ccccc3)S/C(=C3/SC(c4ccccc4)(c4ccccc4)c4ccccc43)c3ccccc32)cc1 | > 100 | > 100 | > 100 | > 100 | > 100 | > 100 | > 100 | > 100 | > 100 | > 100 | > 100 | > 100 | > 100 | > 100 | > 100 | > 100 | > 100 | > 100 | > 100 |  |
| CC1(C)[C@H]2CC[C@](C)(C2)[C@]1(S)Cc1ccccn1 | > 100 | > 100 | > 100 |  | > 100 | 36.6 | 67.6 | > 100 | > 100 | > 100 | > 100 | > 100 | > 100 | > 100 | > 100 | > 100 | 91.9 | > 100 | > 100 | 93.5 |
| NNC(=O)CC(=O)Nc1ccccc1Cl | > 100 | > 100 | > 100 |  |  | > 100 | > 100 | > 100 | > 100 | > 100 | > 100 | > 100 | > 100 | > 100 | > 100 | > 100 | > 100 | > 100 | > 100 | > 100 |
| CC1(C)CC(=O)c2c([nH]c(=S)c(C#N)c2-c2ccc(Br)cc2)C1 | > 100 | > 100 | > 100 | > 100 | > 100 | > 100 | > 100 | > 100 | > 100 | > 100 | > 100 | > 100 | > 100 | > 100 | > 100 | > 100 | > 100 | > 100 | > 100 |  |
| CCCCC1CCCCCCc2[nH]c(/C=C3\N=C(c4ccc[nH]4)C=C3OC)cc21 (centres undefined) | 1.29 | 0.689 | 4.32 | 3.27 |  | 0.49 | 2.09 | 0.101 | 0.0531 | 0.94 | 2.13 | 1.28 | 1.28 | 2 | 1.11 | 1.9 | 0.403 | 1.38 | < 0.0177 | 0.226 |
| C=CC(C)CCC(C/C=C(\C)CCCC(C)C)C(=C)CCCC(C)C (centres undefined) | > 100 | > 100 | > 100 | > 100 | > 100 | > 100 | > 100 | > 100 | > 100 | > 100 | > 100 | > 100 | > 100 | > 100 |  | > 100 | > 100 | > 100 | > 100 | > 100 |
| COc1c(N2CCCCC2)c2c(=O)c3ccccc3oc2c2cc(C)oc12 | 97.9 | 81 | 37.3 | 45.4 | 53.6 | > 100 | 51.5 | > 100 | 22.6 | > 100 | > 100 | > 100 | > 100 | > 100 | 38.6 | > 100 | > 100 |  | 68.3 | 50.3 |
| CC(=O)OC(=C(C#N)C#N)c1nccnc1C(=O)O | > 100 | > 100 | > 100 | > 100 | > 100 | > 100 | > 100 | > 100 | > 100 |  | > 100 | > 100 | > 100 | > 100 | > 100 | > 100 | > 100 | > 100 | > 100 | > 100 |
| O=P1(N(CCCl)CCCl)Oc2c(Cl)cc(Cl)c(Cl)c2Cc2c(Cl)c(Cl)cc(Cl)c2O1 | > 100 |  | > 100 | > 100 | > 100 | > 100 | > 100 | > 100 | > 100 | > 100 | > 100 | > 100 | > 100 | > 100 | > 100 | > 100 | > 100 | > 100 | > 100 | > 100 |
| CCCCCCCCCCCCCCCCC(=O)NCC(=O)NCC(=O)NC(Cc1ccccc1)C(=O)Oc1ccc([N+](=O)[O-])cc1 (centres undefined) | 34.2 |  | 32.2 | 70 | 41.1 | 43.3 | 86.6 | 72.9 | 32.6 | > 100 | 50.4 | > 100 | 56.6 | 57.7 | 88 | 34.5 | > 100 | 55.2 | 40.5 | 58.2 |
| CCC(C#N)NCc1ccc(CNC(C#N)CC)cc1 (centres undefined) | > 100 | > 100 | > 100 | > 100 | > 100 | > 100 | > 100 | > 100 | > 100 |  | > 100 | > 100 | > 100 | > 100 | > 100 | > 100 | > 100 | > 100 | > 100 |  |
| S=C(Nc1ccc(Cl)cc1)c1ccc(CN2CCCCC2)s1 | 79.3 |  | 52.1 |  | 26.7 | > 100 | 73.4 | > 100 | 25.5 |  | > 100 | 8.63 | 13.9 | 32.1 | 19.5 | > 100 | 67.6 | 75 | 21.7 | 20.2 |
